In PubChem BioAssay (NCI) one finds TGI and GI50 data, which are given here for 16 compounds.

SMILES strings stand for the structures. “And” between values parts separate entries of the source, which are not always exact repeats. Equal entries are not always repeated.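 All cell lines were grown in 96-well plates and treated with compound for 48 hours. At the GI50, growth is halved. TGI: total growth inhibition.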

What all share (experiment): NCI anticancer screen, dose series, 48 h
The test system of experiment [1] is 786-0 renal.
Experiment [2] has as its system A549 NSCLC.
For experiment [3], the system named is ACHN renal.
Experiment [4] deals with BT-549 breast.
Experiment [5] has as its system HCC-2998 colon.
Experiment [6] has as its system MDA-MB-435.
Experiment [7] relates to OVCAR-3 ovarian.
Experiment [8] relates to SK-MEL-2 melanoma.
The test system of experiment [9] is SW-620 colon.
Experiment [10] deals with TK-10 renal.

On to `CN(C)CCn1c(CO)nc2c1c(=O)n(C)c(=O)n2C`, for which the TGI in experiment [1], in experiment [2], in experiment [3], in [4], in experiment [5] and in experiment [6] was > 100 µM throughout. The TGI in [7], in experiment [8], in [9] and in [10] was > 100 µM throughout.
For the compound `Cc1nc(N)c(N2CCN(CN)CC2)c(=O)[nH]1`, the TGI in experiment [1], in [2], in experiment [3], in experiment [4], in experiment [5] and in [6] was > 100 µM throughout. In addition, the TGI in experiment [7], in [8], in [9] and in [10] was > 100 µM each time.
In the case of `NNC(=O)C1(NC(=O)c2ccccc2)C(c2ccccc2)C(c2ccccc2)=NN1c1ccccc1` (stereo not given), the TGI in [1], in [2], in experiment [3], in [4], in experiment [5] and in experiment [6] was > 100 µM each time. Besides, the TGI in experiment [7], in experiment [8], in [9] and in experiment [10] was > 100 µM in each case.
`O=[N+]([O-])c1cccc(N=Nc2c(O)c(S(=O)(=O)O)cc3cc(S(=O)(=O)O)ccc23)c1`: the TGI in experiment [1], in experiment [2], in [3], in experiment [4], in [5] and in experiment [6] was > 100 µM throughout. Besides, the TGI in experiment [7], in experiment [8], in experiment [9] and in experiment [10] was > 100 µM throughout.
As to `C=C=C(CC(CC(=C)Br)(C(=O)OC)C(=O)OC)S(=O)(=O)c1ccccc1`, the TGI in experiment [1] was 2.36 µM; in [2] it was 10.6 µM; in experiment [3] it was 6.83 µM; in experiment [4], 3.18 µM; in [5], 9.18 µM; in experiment [6] it was 4.17 µM. Moreover, the TGI is 4.98 µM in experiment [7], 8.22 µM in [8], 2.99 µM in [9] and 4.8 µM in [10].
For `CN(C)CCCNc1ccc2nnn3c4ccc(O)cc4c(=O)c1c23`, the TGI came to 16.9 µM in experiment [1]; 16.9 µM in experiment [2]; 13.5 µM in [3]; 33.9 µM in experiment [4]; 15.2 µM in experiment [5]; 20.9 µM in experiment [6]. Further, the TGI in experiment [7] was 23 µM; in experiment [8], 26.3 µM; in experiment [9], 17.2 µM; in experiment [10] it was 19.4 µM.
Take `O=C(N/N=C/C=C/c1ccccc1)c1ccccc1Nc1ccccc1C(=O)N/N=C/C=C/c1ccccc1`: the TGI in experiment [1], in experiment [2], in [3], in [4], in [5] and in [6] was > 100 µM each time. The TGI in experiment [7], in experiment [8], in [9] and in [10] was > 100 µM throughout.
As to `C=C(C)[C@H]1C2=CC(C)=C(O2)[C@@H](O[C@@H]2c3oc(cc3C)[C@H](C(=C)C)[C@H]3C=C(CC[C@H]2C(=C)C)C(=O)O3)[C@H](C(=C)C)CCC2=C[C@H]1OC2=O`, the TGI in experiment [1], in [2], in experiment [3], in [4], in [5] and in experiment [6] was > 100 µM in each case. The TGI in [7], in experiment [8], in [9] and in [10] was > 100 µM throughout.
Consider `CC(=O)NC1C(OCc2ccccc2)OC(CO)C(O)C1OC(C)C(=O)NC(C(=O)NC(CCC(=O)NCCCCNc1c2ccccc2nc2cccc([N+](=O)[O-])c12)C(N)=O)C(C)C` (stereo not given), for which the TGI in experiment [1] was found to be 5.45 µM; in experiment [2] it was 7.77 µM; in [3], 9.18 µM; in experiment [4] it was 20.8 µM; in [5], 3.47 µM; in experiment [6], 2.84 µM. In addition, the TGI in [7] was 6.14 µM; in experiment [8], 12.5 µM; in experiment [9] it was > 32.9 µM; in experiment [10], 32.4 µM.
Regarding `CC(C)(C)OC(=O)NCC(CNC(=O)OC(C)(C)C)c1nc(C(N)=O)cs1`, the TGI in experiment [1], in experiment [2], in experiment [3], in experiment [4], in [5] and in experiment [6] was > 100 µM throughout. The TGI in experiment [7], in [8], in experiment [9] and in experiment [10] was > 100 µM throughout.
As for `Cc1ccc(S(=O)CC(CF)OCn2cc(C)c(=O)[nH]c2=O)cc1` (stereo not given), the TGI in experiment [1], in experiment [2], in experiment [3], in experiment [4], in [5] and in [6] was > 100 µM in each case. Moreover, the TGI in [7], in experiment [8], in experiment [9] and in [10] was > 100 µM throughout.
With `CN1CC2=C(NC(=S)NC2c2ccccc2)/C(=C/c2ccccc2)C1` (stereo not given), the TGI in [1], in experiment [2], in [3], in [4], in [5] and in experiment [6] was > 100 µM throughout. The TGI in [7], in [8], in experiment [9] and in experiment [10] was > 100 µM throughout.
Take `O=C(O)COc1cc(-c2ccccc2)nc2cc(F)ccc12`: the TGI in experiment [1], in [2], in [3], in experiment [4], in experiment [5] and in experiment [6] was > 100 µM in each case. Further, the TGI in experiment [7], in experiment [8], in experiment [9] and in experiment [10] was > 100 µM each time.
On to `CCCCCCCCCCCCCCCCCCNc1nc(=O)n(C2CC(O)C(COP(=O)(O)O)O2)cc1F` (stereo not given), for which the TGI in [1], in [2], in experiment [3], in experiment [4], in experiment [5] and in [6] was > 100 µM throughout. Moreover, the TGI in [7], in experiment [8], in experiment [9] and in experiment [10] was > 100 µM in each case.
With `CC1=C2C(=CO[C@H](C)[C@H]2C)C(=O)C(C(=O)O)=C1O`, the TGI was 62.7 µM in [1]; 142 µM and > 88.1 µM in experiment [2]; 46.7 µM in experiment [3]; 37.1 µM in experiment [4]; 42.6 µM and 57.9 µM in experiment [5]; 76.1 µM in [6]. Also, the TGI was 43.2 µM and 47 µM in [7]; 48.1 µM and 37.5 µM in experiment [8]; > 74.5 µM and 77.4 µM in experiment [9]; 63.7 µM in [10]. Moreover, the GI50 in experiment [2] is 31.1 µM; in [5], 23.7 µM; in experiment [7], 20.2 µM; in experiment [8], 18.7 µM; in experiment [9], 26.9 µM.
`CCOC(=O)c1cc2c([N+](=O)[O-])c(N)ccc2s1`: the TGI in experiment [1], in [2], in experiment [3], in [4], in experiment [5] and in [6] was > 100 µM in each case. In addition, the TGI in experiment [7], in [8], in experiment [9] and in experiment [10] was > 100 µM each time.
